We go through four compounds from US20090118204A1, “Methods and Compositions Related to Esculentoside A” (UNIVERSITY OF ROCHESTER, priority 2004, published 2009).

“Also recorded” adds a separate entry of the source. Where two headings read alike, the source gives them in different places.

Series [1] concerns C57BL/6 mice. As to the kind of experiment: IR-induced early soft tissue (skin) toxicity in mice. The following applies: for skin damage score: day 19 after 30 Gy single dose IR, EsA 10 mg/kg i.p., Celebrex 50 mg/kg intragastric, 16 h before then daily, Table 4 criteria 1.0 normal to 5.0 necrosis, control above 4.5. The series is classed as in vivo, mouse. The procedure: EsA protects the soft tissue from IR-induced damage. IR sensitive and IL1β high expressing C57BL/6 mice are irradiated with 30 Gy and the skin damage is measured with a preclinical criteria (Table 4).
The effect of EsA was examined with this model system. […] The difference was statistically significant (FIG. 7).
A repeat experiment was performed with an increased number of mice (10 mice/group), and the EsA protective effect was confirmed.

Series [2] relates to NO production in Raw264.7. As to the kind of experiment: IR-induced NO production (nitrite, Griess) in Raw264.7. The series is classed as cell-based, mouse. Particulars: EsA 0.5 or 5 μg/ml added 8 hours before 4 Gy; media 24 hours later. The procedure: (§1) The anti-tumor effectiveness of IR is based in part on triggering the reactive oxygen species and free radicals in tumors; meanwhile, IR also damages normal tissues and causes unwanted toxicity.
(§2) The study was carried out in Raw264.7 cells that were irradiated with 0, 2, 4 and 8 Gy. […] At this optimal condition, EsA (0.5 or 5 μg/ml) was added 8 hours before the IR at 4 Gy and 24 hours later, the media was harvested and 100 μl of media was measured for NO content in the form of nitrite. […] To see if this inhibition was cell line specific, another human macrophage cell line THP-1 was examined.
For orientation: The Griess reaction detects nitrite, a stable product of nitric oxide.

The subject of another series is sensitized mice. The following applies: mouse, in vivo; cited from earlier work.
Series [3] has as its system autoimmunity animal model. Particulars: in vivo; cited from earlier work.
The next series deals with peritoneal macrophages. Particulars: macrophages from mice pretreated with thioglycolate; cited from earlier work.
Another series has as its system activated macrophages. Particulars: cited from earlier work.
The next series has as its target T1, human recombinant COX-2 (Homo sapiens, UniProt P35354).
T1 construct: purchased Cayman 560131
In words: Cayman COX Inhibitor Screening Assay, COX-2. In kind it is biochemical. Particulars: prostanoid quantified by EIA. The text has this: (§3) It is known that constitutive COX-1 and inducible COX-2 catalyze the production of prostaglandins (PGs) from arachidonic acid. The Cayman COX Inhibitor Screening Assay kit directly measures PGF2α produced by SnCl2 reduction of COX-derived PGH2. The prostanoid product is quantified via enzyme immunoassay (EIA) using a broadly specific antibody that binds to all the major prostaglandin compounds (FIG. 15A). To distinguish the inhibition of COX-1 from COX-2, both ovine COX-1 and human recombinant COX-2 enzymes were used as targets. […] EsA is a novel COX-2 inhibitor, which accounts for its observed protective effects on skin (FIGS. 5-7) and brain (FIGS. 8-9).

In a further series the test system is rat hind paws. The following applies: cited from earlier work; for swelling of hind paws: induced by carrageenan.
Series [4] deals with granuloma induced by cotton pellet. The following applies: cited from earlier work.
Series [5] deals with IL1β production in Raw 264.7 macrophage cells. In words: IR-induced IL1β production (ELISA) in Raw 264.7. In kind it is cell-based, mouse. The following applies: 2 Gy, 24 hours culture. The protocol:
IL1β is crucial mediator in early IR toxicity of both brain and soft tissue. […] The protective effect of EsA on early IR toxicity results in part from this effect. First we determined the optimal IR dose to induce IL1 production in Raw 264.7 macrophage cells. Equal numbers of cells were exposed to 0, 2, 4 and 8 Gy IR and 24 hours later, the conditioned media were harvested and 100 μl of media from each sample was measured for IL1β concentration by specific IL1β ELISA using monoclonal antibodies (purchased from R&D Systems, Inc). […] Therefore, 2 Gy was used as optimal IR dose for Raw 264.7 for this set of tests. The cells were treated with 0.1 or 1 μg/ml of EsA for 18 hours, irradiated at 2Gy and then cultured for another 24 hours. The media were measured for protein level of IL1β by ELISA.
(An ELISA detects its analyte on a solid surface through an enzyme-linked reagent.)

The target of series [6] is T2, glucocorticoids receptor (GR) (Mus musculus, UniProt P06537).
T2 construct: expressed in transfected cells
T2 sequence (P06537 whole entry): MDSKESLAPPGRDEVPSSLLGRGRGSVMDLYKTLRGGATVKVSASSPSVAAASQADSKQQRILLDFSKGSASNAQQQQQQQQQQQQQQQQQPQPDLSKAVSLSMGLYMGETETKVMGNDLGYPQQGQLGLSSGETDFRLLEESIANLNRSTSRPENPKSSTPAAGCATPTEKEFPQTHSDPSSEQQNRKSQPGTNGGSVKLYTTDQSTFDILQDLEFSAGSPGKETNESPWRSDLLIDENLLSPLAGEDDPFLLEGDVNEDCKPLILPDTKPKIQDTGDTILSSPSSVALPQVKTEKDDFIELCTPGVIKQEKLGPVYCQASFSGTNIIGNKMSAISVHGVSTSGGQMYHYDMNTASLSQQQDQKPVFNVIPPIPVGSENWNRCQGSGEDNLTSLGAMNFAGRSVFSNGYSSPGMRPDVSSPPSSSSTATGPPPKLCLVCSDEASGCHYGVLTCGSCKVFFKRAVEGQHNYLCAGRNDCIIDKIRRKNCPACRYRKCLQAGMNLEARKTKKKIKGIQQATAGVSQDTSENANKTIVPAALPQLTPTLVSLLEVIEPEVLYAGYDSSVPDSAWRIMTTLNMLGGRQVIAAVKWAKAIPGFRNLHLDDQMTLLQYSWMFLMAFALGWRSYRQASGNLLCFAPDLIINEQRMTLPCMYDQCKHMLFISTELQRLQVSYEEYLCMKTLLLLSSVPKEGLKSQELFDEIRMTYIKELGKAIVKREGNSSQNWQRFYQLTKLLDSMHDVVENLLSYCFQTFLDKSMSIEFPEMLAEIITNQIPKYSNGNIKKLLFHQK
As to the kind of experiment: CAT reporter assay for hormone transactivity in E8.2.A3 cells, GR. In kind it is cell-based. The following applies: 44 hours; EsA 0.4 ng/ml to 40000 μg/ml; Dex 5×10^−7 M. The procedure: (§4) Structurally, EsA has a certain similarity with steroidal hormone, especially a steroid-like back-bone. […] A sensitive reporter system for the hormone transactivity of glucocorticoids receptor (GR) and androgen receptor (AR) was set up as elucidated in the chart (FIG. 12). […] Individual clones with stably transfected mGR and CAT reporter gene were selected with 400 μg/ml of G418 in DMEM medium containing 3% charcoal stripped new born calf serum. […] The treated cells were washed with phosphate buffer saline (PBS) once. To each well, 0.25 ml of 0.25M Tris-HCl was added. The plates underwent 3 cycles of freeze and thaw at −70° C. and room temperature followed by heating at 65° C. for 10 min by floating the plates in a hot water bath. Then, 0.1 ml of cell lysate from each well was used for the CAT assay. […] Briefly, 100 μl of cell lysate from each well were mixed with 150 μl reaction solution (128 μl of 0.25 M Tris-HCl, pH 7.8, 2 μl of the commercial ^3H-acetyl CoA and 20 μl of 2 mg/ml chloramphenicol) in the scintillation vials. To each vial, 2 ml non-aqueous scintillation fluid was added and mixed with the reaction by shaking or vortexing. The vials were counted 3-6 times in a scintillation counter at regular intervals over 1 to 4 hours.

For another series, the target named is T3, ovine COX-1 (Ovis aries, UniProt P05979).
T3 construct: purchased Cayman 560131
T3 sequence (P05979 25-600): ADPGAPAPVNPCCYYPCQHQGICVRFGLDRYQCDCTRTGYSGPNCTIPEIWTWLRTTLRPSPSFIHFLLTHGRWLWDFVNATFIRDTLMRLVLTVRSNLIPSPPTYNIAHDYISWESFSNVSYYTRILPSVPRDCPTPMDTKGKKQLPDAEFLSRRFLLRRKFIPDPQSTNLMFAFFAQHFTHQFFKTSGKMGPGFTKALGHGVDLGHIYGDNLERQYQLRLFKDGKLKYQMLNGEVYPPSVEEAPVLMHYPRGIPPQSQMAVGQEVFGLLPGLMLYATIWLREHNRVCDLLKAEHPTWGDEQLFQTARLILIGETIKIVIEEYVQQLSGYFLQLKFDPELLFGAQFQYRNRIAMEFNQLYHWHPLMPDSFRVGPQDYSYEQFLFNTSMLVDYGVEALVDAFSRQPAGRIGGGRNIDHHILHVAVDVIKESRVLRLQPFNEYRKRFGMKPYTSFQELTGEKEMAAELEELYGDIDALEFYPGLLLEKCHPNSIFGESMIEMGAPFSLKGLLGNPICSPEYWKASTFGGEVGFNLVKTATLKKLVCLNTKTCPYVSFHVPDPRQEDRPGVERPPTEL
In words: Cayman COX Inhibitor Screening Assay, COX-1. In kind it is biochemical. Particulars: prostanoid quantified by EIA.
Excerpt: as §3

The test system of a further series is ICAM-1 and CD18. The following applies: LPS-induced; cited from earlier work.
Series [7] relates to TNF production by Raw264.7. As to the kind of experiment: TNF production by macrophages with LPS and radiation. Particulars: FIG. 31, LPS and radiation. In kind it is cell-based, mouse.
The conditions of series [8]: cited from earlier work.
Series [9] relates to VEGF production by mouse fibroblast L-929. In words: VEGF production by fibroblasts. The following applies: FIG. 10. The series is classed as cell-based.
The test system of another series is activated splenocytes. Particulars: cited from earlier work.
Series [10] concerns IL1α production by RAW264.7. In words: IL1α production by macrophages. In kind it is cell-based, mouse. The following applies: FIG. 29, in vitro macrophages.
Series [11] deals with IL1β production in A431 human epidermoid carcinoma cells. In words: IR-induced IL1β production (ELISA) in A431. The series is classed as cell-based.
The next series deals with mouse. In words: Alopecia and hair regrowth after 30 Gy irradiation. In kind it is in vivo.
Series [12] deals with C57BL/6 mice. Particulars: 40 Gy whole head; EsA 10 mg/kg i.p., Dex 3 mg/kg i.v. before IR; brains taken 24 h later; P<0.05.
Description: 16 hour before the whole heads of mice were irradiated at 40 Gy.
The mice without radiation served as negative controls. Twenty four hours later, the whole brain was taken out, weighed (wet weight), placed on aluminum foil and placed in an oven at 60° C. At different time points (10 min intervals for the first 2 hours and then 4, 6, 24 hr), the brains were weighed, and the results were expressed as: % water={(wet weight−dry weight)/wet weight}×100%. The higher the % water, the greater the severity of edema. Brain % water as a function of time provided a brain drying curve.
A further series deals with activated thymocytes. The following applies: cited from earlier work.
The subject of series [13] is Lewis' lung carcinoma cells. As to the kind of experiment: Tumor growth of Lewis' lung carcinoma in syngeneic mice. The series is classed as in vivo, mouse. The following applies: daily for 20 days, same dose as in soft tissue protection. An excerpt:
Considering that EsA is used as a radioprotector in patients with tumors, its effect on tumor growth is a critical issue for its application.

For the next series, the system named is murine ears. The following applies: induced by zylene, acute inflammation model; cited from earlier work.
A further series has as its system NO production in THP-1. In words: IR-induced NO production in THP-1. The following applies: 0.1, 0.5 and 5 μg/ml EsA; NO up-regulated 5 fold 4 hours after IR. In kind it is cell-based, human. The procedure:
as §1, §2

In the next series the test system is mice. Particulars: following LPS challenge; cited from earlier work.
A further series has as its target T4, androgen receptor (AR) (Mus musculus, UniProt P19091).
T4 construct: contain high levels of AR; endogenous in cells; host or cells: E8.2.A3 cells (mouse L cell fibroblast variant)
As to the kind of experiment: CAT reporter assay for hormone transactivity in E8.2.A3 cells, AR. In kind it is cell-based. The following applies: 44 hours; EsA 0.4 ng/ml to 40000 μg/ml; DHT 5×10^−7 M. The protocol:
as §4
(Reporter assays use an easily measured gene product as a stand-in for the process of interest.)

Series [14] deals with prostaglandin E2 (PGE2), platelet-activating factor (PAF), and nitric oxide (NO). Particulars: cited from earlier work.
The next series concerns E8.2.A3 cells. In words: Morphological changes and cell death in reporter cells. In kind it is cell-based, mouse. The following applies: 44 hours, observed twice a day.
The subject of the next series is IR brain edema. The following applies: cited from earlier work.
A further series deals with COX-2 transgenic mice. The following applies: mouse, in vivo; cited from earlier work.
The mark [15] stands for this setting: relative long-term use (>2-3 weeks after IR).

T4 sequence (P19091 whole entry): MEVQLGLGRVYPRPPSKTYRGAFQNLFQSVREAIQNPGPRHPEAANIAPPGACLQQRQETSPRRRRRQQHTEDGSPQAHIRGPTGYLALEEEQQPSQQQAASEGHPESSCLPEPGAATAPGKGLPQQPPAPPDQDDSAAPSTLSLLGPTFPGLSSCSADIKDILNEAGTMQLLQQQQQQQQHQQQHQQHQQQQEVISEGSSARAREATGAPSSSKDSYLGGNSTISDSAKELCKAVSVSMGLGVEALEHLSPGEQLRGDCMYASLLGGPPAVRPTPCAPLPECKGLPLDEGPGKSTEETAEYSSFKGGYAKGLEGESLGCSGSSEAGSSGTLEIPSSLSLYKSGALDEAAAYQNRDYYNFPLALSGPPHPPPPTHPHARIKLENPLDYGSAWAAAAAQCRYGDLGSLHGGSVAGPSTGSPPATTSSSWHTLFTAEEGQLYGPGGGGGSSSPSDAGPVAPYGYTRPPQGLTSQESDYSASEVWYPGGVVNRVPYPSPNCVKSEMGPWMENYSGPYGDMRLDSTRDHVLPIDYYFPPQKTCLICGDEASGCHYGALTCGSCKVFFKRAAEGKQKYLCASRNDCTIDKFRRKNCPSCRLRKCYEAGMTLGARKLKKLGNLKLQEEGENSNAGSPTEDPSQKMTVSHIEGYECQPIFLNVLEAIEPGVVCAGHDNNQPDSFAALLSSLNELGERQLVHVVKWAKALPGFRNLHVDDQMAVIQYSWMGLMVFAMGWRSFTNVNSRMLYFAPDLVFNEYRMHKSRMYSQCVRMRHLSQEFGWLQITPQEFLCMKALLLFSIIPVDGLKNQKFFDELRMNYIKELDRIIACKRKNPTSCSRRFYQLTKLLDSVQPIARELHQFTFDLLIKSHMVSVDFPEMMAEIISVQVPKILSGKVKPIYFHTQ
T1 sequence (P35354 18-604): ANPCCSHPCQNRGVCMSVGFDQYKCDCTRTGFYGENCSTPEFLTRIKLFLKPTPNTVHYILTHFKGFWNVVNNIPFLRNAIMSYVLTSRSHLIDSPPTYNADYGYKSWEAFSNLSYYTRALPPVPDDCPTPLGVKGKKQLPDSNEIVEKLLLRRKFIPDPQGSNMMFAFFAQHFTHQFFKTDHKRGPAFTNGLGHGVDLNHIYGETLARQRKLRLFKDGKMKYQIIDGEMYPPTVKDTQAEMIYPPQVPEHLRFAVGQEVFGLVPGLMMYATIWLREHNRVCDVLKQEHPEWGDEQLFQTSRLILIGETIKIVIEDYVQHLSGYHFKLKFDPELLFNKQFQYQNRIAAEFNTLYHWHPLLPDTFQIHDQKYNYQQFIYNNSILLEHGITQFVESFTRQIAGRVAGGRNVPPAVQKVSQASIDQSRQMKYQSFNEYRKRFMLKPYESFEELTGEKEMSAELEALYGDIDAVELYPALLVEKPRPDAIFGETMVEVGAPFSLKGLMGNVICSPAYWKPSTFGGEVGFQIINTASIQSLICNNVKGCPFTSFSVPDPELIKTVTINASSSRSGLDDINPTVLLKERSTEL

As to `Cc1ccc(-c2cc(C(F)(F)F)nn2-c2ccc(S(N)(=O)=O)cc2)cc1` [Celebrex, celecoxib, reference compound], in the series with C57BL/6 mice [1], the skin damage score entry is reported as “about 3”.
As to `COC(=O)[C@@]1(C)CC[C@]2(C(=O)O)CC[C@]3(C)C(=CC[C@@H]4[C@@]5(C)C[C@H](O)[C@H](O[C@@H]6OC[C@@H](O[C@@H]7O[C@H](CO)[C@@H](O)[C@H](O)[C@H]7O)[C@H](O)[C@H]6O)[C@@](C)(CO)[C@@H]5CC[C@]43C)[C@@H]2C1` [EsA, Esculentoside A], in series [2], the “IR-induced NO production” value is “inhibited”. Besides, the serum hemolysin concentration result in the series on sensitized mice is recorded as “markedly decreased”. In addition, in series [3], the “inflammation of joint and viscera” value is reported as “decreased”. For the same compound, in the series with peritoneal macrophages, the “release of TNF, IL-1 and IL-6” value was “significantly reduced”. Further, the “macrophage functions (phagocytosis, antibody production, secretion of cytokines)” value with activated macrophages is on record as “diminished”. Besides, the “effect on COX-2” value on human recombinant COX-2 is “inhibited the COX-2 in a dose-dependent manner”. In addition, in the series with rat hind paws (acute inflammation models), the “duration of the effects” value was “more than 5 hours”. Moreover, the “swelling of hind paws” value with rat hind paws (adrenalectomised rat) is “suppressed”. In addition, the “swelling of hind paws” value in the series with rat hind paws is on record as “inhibited”. For the same compound, the proliferation of granuloma result in [4] is “significantly inhibited”. The “IR-induced production of IL1β” value in series [5] (EsA 0.1 μg/ml for 18 hours) is “dramatically inhibited; also recorded: reduced”. Moreover, the “IR-induced production of IL1β” value in series [5] (EsA 1 μg/ml for 18 hours, P<0.01) was “reduced the IL1β to the basal level”. Also, the “glucocorticoidal hormone transactivity (CAT activity)” value in series [6] is given as “neither androgen nor glucocorticoidal hormone transactivity”. Besides, the “protection of soft tissue” value in the series with C57BL/6 mice [1] (4 weeks after 30 Gy IR, same dosing) is listed as “effectively protected the soft tissue”. Further, the skin damage score result with C57BL/6 mice [1] was “about 2”. In the series on C57BL/6 mice [1] (setting [15]), the “early IR skin toxicity” value was “prevented” and the “second wave of IL1β” value is recorded as “blocked”. Besides, the signs of sickness result in the series with C57BL/6 mice [1] (whole course of EsA treatment) was “no signs of sickness were observed”. At ovine COX-1, the “effect on COX-1” value was “no effect”. Further, the “expression of adhesion molecules ICAM-1 and CD18” value in the series on ICAM-1 and CD18 is given as “suppressed”. Moreover, the TNF production result in series [7] is listed as “inhibitory effect”. Further, in series [8], the water-solubility result was “high water-solubility”. Further, the VEGF production entry in series [9] is recorded as “inhibitory effect”. Further, the “production of IL-2” value in the series on activated splenocytes is given as “inhibited”. The IL1α production entry in series [10] was “inhibitory effect”. For the same compound, the “IL1β induced by IR” value in [11] (EsA 0.1 μg/ml, 4 Gy, P<0.01) is “inhibited; also recorded: reduced”. Also, the “IL1β production induced by IR in vitro in epithelial cells” value in series [11] (FIG. 27) is on record as “inhibitory effect”. Further, the “hair regrowth / duration of alopecia” value in the series on mouse (30 Gy, Celebrex i.g. 50 mg/kg for 20 days) is given as “after two weeks”. The “recovery of cranial alopecia” value in the series with mouse (EsA compared with celebrex) was “recovered more quickly and completely”. Besides, the “brain edema (% water)” value with C57BL/6 mice [12] was “reduction of brain edema was statistically significant; also recorded: less extensive brain edema; also recorded: can reduce IR-induced brain edema”. Besides, the “apoptosis of activated thymocytes” value in the series with activated thymocytes is reported as “accelerated”. For the same compound, the tumor growth result in [13] is “little effect on tumor growth”. Moreover, the swelling of ears result in the series with murine ears was “markedly lowered”. Further, the “reduction of NO production” value with NO production in THP-1 is recorded as 3 fold. In addition, the “TNF, IL-1 and IL-6 levels in the sera” value with mice is given as “dose-dependently decreased”. Also, at androgen receptor (AR), the “androgen hormone transactivity (CAT activity)” value is recorded as “neither androgen nor glucocorticoidal hormone transactivity”. In series [14], the “production of PGE2, PAF and NO” value was “inhibited”. Moreover, in the series with E8.2.A3 cells, the “concentration at which death of cells was observed” value turned out to be 40000 µg/mL and the “concentration with no morphological change of cells” value was “below 4 mg/ml”.
For `CS(=O)(=O)Nc1ccc([N+](=O)[O-])cc1OC1CCCCC1` [NS-398], the “induction of prostanoid and IR brain edema” value in the series with IR brain edema (Moore et al. 2004) is recorded as “blocked”. Further, the “IR toxicity in brain and soft tissue” value with IR brain edema (mouse, in vivo) is “protected”.
As to `COc1ccc2c(c1)c(CC(=O)O)c(C)n2C(=O)c1ccc(Cl)cc1` [indomethacin], in the series on COX-2 transgenic mice, the microvessel density entry was “strongly decreased”, the tumor progression entry was “inhibited” and the “upregulation of angiogenic regulatory genes in mammary tissue” value is recorded as “inhibited”.
